Measured values reported in patent publication US11111219B2, “Polysubstituted pyrimidines inhibiting the formation of prostaglandin E2, a method of production thereof and use thereof” (USTAV ORGANICKE CHEMIE A BIOCHEMIE AV CR, V.V.I., priority 2017, dated 2021).
Several values for one entry are separate records, joined by “and”; a condition that tells them apart may be missing. Equal entries are not always repeated.

Key:
Format in all cases: cell-based
mouse peritoneal cells = assay: Cell viability, lactate dehydrogenase (LDH) assay; settings: compound 50 μmol·l^−1, 5 hours
Method: Cell viability was determined using the lactate dehydrogenase assay (LDH kit, Sigma-Aldrich). The mouse peritoneal cells were cultured for 5 hours in the presence of tested compounds applied at the concentration of 50 μmol.l^−1. The effects of pyrimidines were compared with the viability of cells cultured in the absence of the compounds. The later was taken as a control 100% viability.

biosynthesis of PGE2 = assay: Production of PGE2 in LPS-stimulated mouse peritoneal cells; settings: for activity at 50 µM: Mus musculus, 5 h, compound 50 μmol·l^−1, with LPS 10 ng/ml, 5 hours, LPS alone = 100%, low values = strong inhibition, read-out: PGE2 remaining activity in % of LPS response (mean ± SEM); for IC50: concentration-effect experiments, 0.0004 to 25 μmol·l^−1, mouse peritoneal cells, LPS, read-out: PGE2 IC50, and 95% limits of confidence (in parentheses)
Method: Production of PGE2 was assayed in vitro in cultures of mouse peritoneal cells. The cells (2×10^6/mL) were stimulated with bacterial lipopolysaccharide (LPS, 10 ng/ml). Tested pyrimidine derivatives were applied at the concentration of 50 μmol.l^−1, concomitantly with LPS. Amount of PGE2 in cell supernatants was determined 5 hours after stimulation using the commercially available kit (R&D Systems). The effects of pyrimidines on PGE2 production were evaluated in percent of control values, i.e. those found after the action of LPS alone (100%). The data in Table 2 show the remaining activity; the low values thus indicate strong inhibition of PGE2 formation.
The concentrations required to inhibit PGE2 biosynthesis by 50% (so-called IC50) were determined by the analysis of concentration-effect experiments. For this purpose, the compounds were applied within the range of 0.0004 μmol.l^−1 až 25 μmol.l^−1.

[1] = system: production of nitric oxide (NO); assay: Production of nitric oxide (NO) in LPS/IFN-γ-stimulated murine peritoneal cells (Griess reagent); settings: Mus musculus; compound 50 μmol·l^−1, LPS 0.1 ng/ml + IFN-γ 5 ng/ml, nitrites at 24 h; LPS/IFN-γ alone = 100%; read-out: Production of NO in % of controls
Method: Similar to the PGE2 assay, the production of nitric oxide (NO) was followed under conditions in vitro using murine peritoneal cells (FIG. 1). The cells (2×10^6/ml) were cultured in presence of lipopolysaccharide (LPS, 0.1 ng/ml) and recombinant mouse interferon-γ (IFN-γ, 5 ng/ml). Effects of tested pyrimidine derivatives were screened at the concentration of 50 μmol.l^−1. The compounds were added concomitantly with LPS/IFN-γ. The concentration of nitrites in cell supernatants (a measure of NO production) was evaluated spectrophotometrically, 24 h after the priming stimuli. Griess reagent was used for this purpose. The effects of pyrimidines on NO production were evaluated in percent of control values, i.e those found after the action of LPS/IFN-γ alone (100%).

IC50 (biosynthesis of PGE2)	Compound	Cell viability in % of untreated controls (LDH assay) (mouse peritoneal cells)	activity at 50 µM (biosynthesis of PGE2)	activity at 50 µM [1]	Inhibition of PGE2 production (in words) (biosynthesis of PGE2; compound 50 μmol·l^−1)
–	Nc1nc(-c2ccccc2)cc(-c2ccc(OCc3ccc(Cl)cc3)cc2)n1 [Compound 1i, 4-(4-((4-chlorobenzyl)oxy)phenyl)-6-phenylpyrimidin-2-amine]	102.2 ± 4.1 (n = 4) %	–	–	–
–	CCCCc1c(-c2ccc(OCc3ccccc3)cc2)nc(N)nc1-c1cccc(Cl)c1 [Compound 2c, 4-(4-(benzyloxy)phenyl)-5-butyl-6-(3-chlorophenyl)pyrimidin-2-amine]	101.3 ± 2.0 (n = 4) %	12.6 ± 1.7%	–	–
–	CCCCc1c(-c2ccccc2)nc(N)nc1-c1cc(C)c(OCc2ccccc2Cl)c(C)c1 [Compound 1n, 5-butyl-4-(4-((2-chlorobenzyl)oxy)-3,5-dimethylphenyl)-6-phenylpyrimidin-2-amine]	103.6 ± 0.3 (n = 8) %	7.1 ± 1.9%	–	–
–	Nc1nc(-c2ccccc2)cc(-c2ccc(OCc3ccccc3)cc2)n1 [Compound 1d, 4-(4-(benzyloxy)phenyl)-6-phenylpyrimidin-2-amine]	101.2 ± 0.7 (n = 4) %	0.7 ± 0.8%	–	–
–	CCCCc1c(-c2ccccc2)nc(N)nc1-c1ccc(OCc2cccc3ccccc23)cc1 [Compound 1f, 5-butyl-4-(4-(naphthalen-1-ylmethoxy)phenyl)-6-phenylpyrimidin-2-amine]	104.8 ± 0.4 (n = 8) %	26.3 ± 5.3%	–	–
–	CCCCc1c(-c2ccc(OCc3ccccc3)cc2)nc(N)nc1-c1cccc(OC)c1 [Compound 2a, 4-(4-(benzyloxy)phenyl)-5-butyl-6-(3-methoxyphenyl)pyrimidin-2-amine]	43.1% and 43.1 ± 8.4 (n = 4) %	10 ± 2%	–	–
–	Nc1nc(-c2ccccc2)cc(-c2ccc(OCc3ccccc3)c(F)c2F)n1 [Compound 1l, 4-(4-(benzyloxy)-2,3-difluorophenyl)-6-phenylpyrimidin-2-amine]	102.6 ± 3.7 (n = 4) %	5.5 ± 0.3%	–	–
–	CCCCc1c(-c2ccc(OC)cc2)nc(N)nc1-c1ccc(OCc2ccccc2)cc1 [Compound 2b, 4-(4-(benzyloxy)phenyl)-5-butyl-6-(4-methoxyphenyl)pyrimidin-2-amin]	100.3 ± 1.2 (n = 4) %	10.5 ± 0.1%	–	–
–	CCCCc1c(-c2ccccc2)nc(N)nc1-c1cc(C)c(OCc2cccc(Cl)c2)c(C)c1 [Compound 1o, 5-butyl-4-(4-((3-chlorobenzyl)oxy)-3,5-dimethylphenyl)-6-phenylpyrimidin-2-amine]	102.8 ± 0.4 (n = 8) %	6.5 ± 0.4%	–	–
–	CCCCc1c(-c2ccccc2)nc(N)nc1-c1ccc(OCC)cc1 [Compound 1a, 5-butyl-4-(4-ethoxyphenyl)-6-phenylpyrimidin-2-amine]	104.6 ± 1.3 (n = 8) %	26.3 ± 0.1%	–	–
0.094 µM	CCCCc1c(-c2ccccc2)nc(N)nc1-c1ccc(OCc2ccccc2)cc1 [Compound 1e, 4-(4-(benzyloxy)phenyl)-5-butyl-6-phenylpyrimidin-2-amine]	–	–	–	–
0.006 µM	CCCCc1c(-c2ccccc2)nc(N)nc1-c1ccc(OCc2ccccc2)c(F)c1F [Compound 1m, 4-(4-(benzyloxy)-2,3-difluorophenyl)-5-butyl-6-phenylpyrimidin-2-amine]	103.7 ± 0.4 (n = 8) %	0.03 ± 0.2%	84%	completely inhibits
–	COc1ccc(COc2ccc(-c3cc(-c4ccccc4)nc(N)n3)cc2)cc1 [Compound 1g]	99.6 ± 3.0 (n = 4) %	8.4 ± 3%	–	–
5.4 µM	CCCCc1c(-c2ccccc2)nc(N)nc1-c1ccc(OCc2ccc(OC)cc2)cc1 [Compound 1h, 5-butyl-4-(4-((4-methoxybenzyl)oxy)phenyl)-6-phenylpyrimidin-2-amine]	104.2 ± 0.3 (n = 8) %	2 ± 1.5%	–	–
–	CCCCc1c(-c2ccc(Cl)cc2)nc(N)nc1-c1ccc(OCc2ccccc2)cc1 [Compound 2d, 4-(4-(benzyloxy)phenyl)-5-butyl-6-(4-chlorophenyl)pyrimidin-2-amine]	96.7 ± 2.2 (n = 4) %	4.1 ± 0.7%	–	–
–	CCCCc1c(-c2ccccc2)nc(N)nc1-c1ccc(OC(C)C)cc1 [Compound 1b, 5-butyl-4-(4-isopropoxyphenyl)-6-phenylpyrimidin-2-amine]	71.2 ± 1.9 (n = 8) %	12.3 ± 0.5%	–	–
–	CCCCc1c(-c2ccccc2)nc(N)nc1-c1ccc(OCc2ccccc2)cc1C [Compound 1k, 4-(4-(benzyloxy)-2-methylphenyl)-5-butyl-6-phenylpyrimidin-2-amine]	103.2 ± 0.5 (n = 8) %	51.1 ± 0.8%	–	–
0.077 µM	CCCCc1c(-c2ccccc2)nc(N)nc1-c1ccc(OCc2ccc(Cl)cc2)cc1 [Compound 1j, 5-butyl-4-(4-((4-chlorobenzyl)oxy)phenyl)-6-phenylpyrimidin-2-amine]	101.2 ± 0.8 (n = 8) %	0.7 ± 0.5%	–	–
